What follows are compounds tested against human, KCNT1 (Homo sapiens (Human), UniProt Q5JUK3) (assay: FLIPR Tl/K Flux Assay). Settings: HEK293 cells stably expressing human KCNT1; Tl+ flux stimulated with EC80 of agonist Loxapine.
Type: cell-based
In short: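 HEK293 cells stably expressing human KCNT1 were loaded with FLIPR potassium dye in HEPES/HBSS pH 7.4 with 5 mM probenecid, 1 h at 25 °C, then given test compound for 30 min at 25 °C. Tl+ flux was triggered with chloride-free buffer containing Tl+ and EC80 loxapine and read 160 s. IC50 came from Hill fits of % inhibition.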

human, KCNT1, sequence (Q5JUK3 whole entry): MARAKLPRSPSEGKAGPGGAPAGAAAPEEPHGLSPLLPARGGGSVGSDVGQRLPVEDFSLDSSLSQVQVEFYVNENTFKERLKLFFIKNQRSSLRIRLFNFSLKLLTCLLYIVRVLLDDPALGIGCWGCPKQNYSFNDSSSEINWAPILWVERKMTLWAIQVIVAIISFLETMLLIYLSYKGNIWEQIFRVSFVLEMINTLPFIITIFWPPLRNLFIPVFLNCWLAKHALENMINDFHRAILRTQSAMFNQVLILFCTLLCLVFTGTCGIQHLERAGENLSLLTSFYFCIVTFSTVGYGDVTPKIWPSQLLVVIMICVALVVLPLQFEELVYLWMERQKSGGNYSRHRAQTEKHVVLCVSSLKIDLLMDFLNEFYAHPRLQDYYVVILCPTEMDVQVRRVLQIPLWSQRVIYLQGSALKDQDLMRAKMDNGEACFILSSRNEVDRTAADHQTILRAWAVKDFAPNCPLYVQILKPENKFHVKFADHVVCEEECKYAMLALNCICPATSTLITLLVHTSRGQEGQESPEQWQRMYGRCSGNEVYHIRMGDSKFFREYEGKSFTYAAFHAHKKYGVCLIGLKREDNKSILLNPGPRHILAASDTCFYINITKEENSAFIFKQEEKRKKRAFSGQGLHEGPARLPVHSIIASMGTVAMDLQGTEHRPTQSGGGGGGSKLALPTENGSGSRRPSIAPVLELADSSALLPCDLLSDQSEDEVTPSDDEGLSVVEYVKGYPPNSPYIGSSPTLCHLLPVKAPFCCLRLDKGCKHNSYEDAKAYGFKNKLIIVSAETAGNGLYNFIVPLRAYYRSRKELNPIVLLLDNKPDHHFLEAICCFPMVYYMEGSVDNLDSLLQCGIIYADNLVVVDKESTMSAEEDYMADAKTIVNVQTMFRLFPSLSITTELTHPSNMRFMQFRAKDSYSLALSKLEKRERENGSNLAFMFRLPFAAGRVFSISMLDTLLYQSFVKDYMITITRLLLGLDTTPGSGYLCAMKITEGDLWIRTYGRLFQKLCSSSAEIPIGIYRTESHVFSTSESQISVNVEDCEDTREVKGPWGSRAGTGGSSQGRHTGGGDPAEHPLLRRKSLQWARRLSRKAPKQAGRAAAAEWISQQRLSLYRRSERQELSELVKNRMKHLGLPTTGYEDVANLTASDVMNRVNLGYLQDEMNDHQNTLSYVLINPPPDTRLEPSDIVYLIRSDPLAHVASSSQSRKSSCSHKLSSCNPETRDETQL

Row | SMILES | IC50 [nM]
1 | O=C(N[C@H]1CCn2nc(-c3ccnc(C4CC4)c3)cc21)C12CC(C(F)(F)F)(C1)C2 [Compound I-494a, (S)-N-(2-(2-Cyclopropylpyridin-4-yl)-5,6-dihydro-4H-pyrrolo[1,2-b]pyrazol-4-yl)-3-(trifluoromethyl)bicyclo[1.1.1]pentane-1-carboxamide] | < 250
2 | O=C(N[C@H]1CCCn2nc(-c3cc(C(F)(F)F)ncc3F)cc21)c1cncc(C(F)(F)F)n1 [Compound I-204a, (S)-N-(2-(5-Fluoro-2-(trifluoromethyl)pyridin-4-yl)-4,5,6,7-tetrahydropyrazolo[1,5-a]pyridin-4-yl)-6-(trifluoromethyl)pyrazine-2-carboxamide] | < 250
3 | CS(=O)(=O)c1ccc(C(=O)N[C@H]2CCc3nn(-c4ccnc(C(F)(F)F)c4)cc32)cc1 [Compound I-96a] | > 1000
4 | COc1cc(C(=O)N[C@H]2CCCCn3nc(-c4cc(C(F)(F)F)ncc4F)cc32)ccn1 [Compound I-194a, (S)-N-(2-(5-Fluoro-2-(trifluoromethyl)pyridin-4-yl)-5,6,7,8-tetrahydro-4H-pyrazolo[1,5-a]azepin-4-yl)-2-methoxyisonicotinamide] | < 250
5 | O=C(N[C@H]1CCn2nc(-c3ccnc(C(F)(F)F)c3)cc21)C1CC(C(F)(F)F)C1 (stereo partly drawn) [Compound I-147a, (S)-3-(Trifluoromethyl)-N-(2-(2-(trifluoromethyl)pyridin-4-yl)-5,6-dihydro-4H-pyrrolo[1,2-b]pyrazol-4-yl)cyclobutane-1-carboxamide] | < 250
6 | O=C(N[C@H]1CCCn2nc(-c3ccnc(C(F)(F)F)c3)cc21)c1nc2ccccn2n1 [Compound I-422a] | > 1000
7 | O=C(N[C@H]1CCn2nc(-c3ccnc(C(F)(F)F)c3)cc21)c1ccn2nccc2c1 [Compound I-550a, (S)-N-(2-(2-(Trifluoromethyl)pyridin-4-yl)-5,6-dihydro-4H-pyrrolo[1,2-b]pyrazol-4-yl)pyrazolo[1,5-a]pyridine-5-carboxamide] | < 250
8 | Cn1ncc(C(=O)N[C@H]2CCCn3nc(-c4ccnc(C(F)(F)F)c4)cc32)c1Cl [Compound I-407a] | 250 to 500
9 | Cn1nc(C(F)(F)F)cc1C(=O)N[C@@H]1CCc2nn(-c3ccnc(C4CCC4)c3)cc21 [Compound I-72b] | > 1000
10 | N#Cc1cc(F)cc(C(=O)N[C@H]2CCCn3nc(-c4ccnc(C(F)(F)F)c4)cc32)c1 [Compound I-320a, (S)-3-Cyano-5-fluoro-N-(2-(2-(trifluoromethyl)pyridin-4-yl)-4,5,6,7-tetrahydropyrazolo[1,5-a]pyridin-4-yl)benzamide] | < 250
11 | Cn1nc(C(F)(F)F)cc1C(=O)N[C@@H]1CCCc2cc(-c3ccnc(C(F)(F)F)c3)[nH]c21 [Compound I-475b] | > 1000
12 | COc1cc(C(=O)N[C@H]2CCCc3cnc(-c4ccnc(C(F)(F)F)c4)cc32)ccn1 (single isomer, unassigned) [I-269*] | > 1000
13 | O=C(N[C@H]1CCCn2nc(-c3cc(C(F)(F)F)ncc3F)cc21)c1cnc2ccccc2n1 [Compound I-195a, (S)-N-(2-(5-Fluoro-2-(trifluoromethyl)pyridin-4-yl)-4,5,6,7-tetrahydropyrazolo[1,5-a]pyridin-4-yl)quinoxaline-2-carboxamide] | < 250
14 | COc1cc(-c2cc3n(n2)CC[C@@H]3NC(=O)c2cnc(C(F)(F)F)cn2)c(F)cn1 [Compound I-575a, (S)-N-(2-(5-Fluoro-2-methoxypyridin-4-yl)-5,6-dihydro-4H-pyrrolo[1,2-b]pyrazol-4-yl)-5-(trifluoromethyl)pyrazine-2-carboxamide] | < 250
15 | Cn1nc(C(F)(F)F)nc1C(=O)N[C@H]1CCn2nc(-c3ccnc(C(F)(F)F)c3)cc21 [Compound I-314a, (S)-1-Methyl-3-(trifluoromethyl)-N-(2-(2-(trifluoromethyl)pyridin-4-yl)-5,6-dihydro-4H-pyrrolo[1,2-b]pyrazol-4-yl)-1H-1,2,4-triazole-5-carboxamide] | < 250

Source: patent US20250313548A1 (Actio Biosciences, Inc., priority 2023, published 2025)
